# Experiments:
# C8161 melanoma cells = assay: MTT cell viability assay, C8161; details: for cell proliferation and viability (number of viable cells): single agent, seven days, FIG. 1A
# Procedure: (§6) MTT cell viability assays were performed as known in the art. C8161, UACC903, 1205Lu, SKMEL 187 and A2058 melanoma cell lines were used in the MTT assays. […] Viable cells were measured every day for 4 or 7 days. Absorbance was determined using a Tecan plate reader (Infinite 200 Tecan USA, Durham, N.C.) at 570 nm everyday for up to 7 days.
# UACC903 melanoma cells [1] = assay: MTT cell viability assay, UACC903; format: cell-based, human; details: for cell proliferation and viability (number of viable cells): single agent, seven days
# Procedure: as §6
# [2] = system: SKMEL 28 human melanoma cells; assay: MTT cell viability assay, SKMEL 28; format: cell-based; details: single agent 10 μM, FIG. 5A
# Procedure: as §6
# [3] = system: C8161 human melanoma xenografts; assay: Immunohistochemistry on excised C8161 xenografts (riluzole/MK2206 study); format: in vivo, mice; details: riluzole 10 mg/kg; for cleaved Caspase-3-positive (apoptotic) cells: MK2206 30 mg/kg, or riluzole 5 mg/kg + MK2206 15 mg/kg, combination p<0.001 vs single agent
# From the text: (§1) Tissue Analytical Services at the Cancer Institute of New Jersey performed immunohistochemical staining on excised tumor xenografts to detect changes in the number of apoptotic and proliferating cells (activated Caspase 3 and Ki-67, respectively). The number of stained cells was quantified with a Digital Aperio ScanScopeGL system and ImageScope software (v 10.1.3.2028) (Aperio Technologies Inc., Vista, Calif.) according to the manufacturer's protocol.
# Excised tumor samples were subjected to immunohistochemistry evaluation with the apoptosis marker, cleaved Caspase-3, and the proliferation index marker, Ki-67.
# AKT phosphorylation = assay: Western immunoblot, phosphorylated AKT; format: cell-based; details: three human melanoma cell lines (C8161, UACC903, SKMEL 28)
# Procedure: (§2) Protein lysates were prepared as commonly known in the art. Briefly, media was removed and cells were washed once with ice-cold phosphate buffered saline (PBS). After removal of PBS, the extraction buffer was added directly to the plates and cells were collected with a cell scraper. Cells were incubated on ice for 20 minutes. Cell debris was removed by centrifugation at 25,000×g at 4° C. for 20 minutes and supernatant taken for Western immunoblot analysis. Western Blotting was carried out with anti-PARP, anti-cleaved PARP, anti-phospho ERK, anti-total ERK, anti-a-tubulin antibodies, anti AKT and anti-Phospho AKT-S473.
# [4] = system: C8161 human melanoma xenografts; assay: C8161 xenografts in immunodeficient nude mice; format: in vivo; details: riluzole 10 mg/kg
# Procedure: (§3) The Institutional Review Board approved all animal studies for the Animal Care and Facilities Committee of Rutgers University. Nude mice were purchased from Taconic (Hudson, N.Y.). Cells were injected into 2 dorsal sites of each mouse at 10^6 cells per site. Tumor size was measured twice a week with a Vernier caliper and calculated as described. Once tumor volumes reached 6-10 mm^3, mice were divided into no treatment and treatment groups. […] The experiments were terminated when the xenografts in the no treatment group reached the maximum permitted size.
# C8161 human melanoma cells were inoculated into the dorsal flanks of immunodeficient nude mice. 10^6 cells were inoculated into each dorsal flank of 5-6 week-old mice. When the tumors reached tumor volumes of ˜10 mm^3, the mice were randomly divided in 5 groups with similar tumor volumes. The mice were then treated by oral gavage daily, except for […] treatment, which was administered three times a week. […] Tumor volumes were determined once a week with a vernier caliper and the experiment was terminated when tumor burden in the control animals reached maximum permitted levels.
# advanced melanoma = details: cited from earlier work
# [5] = system: UACC903 human melanoma cell line; assay: Three dimensional anchorage independent colony assay, UACC903; format: cell-based; details: riluzole 10 μM, sorafenib 5 μM or both; 14 days; FIG. 2
# Procedure: (§4) The cells were suspended in 0.35% agar in RPMI supplemented with 10% FBS and plated on a layer of 0.75% agar in the same medium in 12-well culture plates (1−1.5×10^4 cells/well). […] Every other day, the vehicle, or drug(s) was again added with 250 μl of complete medium. After 14 days, the colonies were stained with iodonitrotetrazolium chloride (Sigma) and photographed. The numbers of colonies were counted using Image J software. Quantitation was performed by comparing the total number of colonies from three representative photomicrographs from each experiment. The histograms represent the average of three independent experiments.
# [6] = system: C8161 human melanoma cell line; assay: Three dimensional anchorage independent colony assay, C8161; format: cell-based; details: riluzole 10 μM, sorafenib 5 μM or both; 14 days; FIG. 2
# Procedure: as §4
# SKMEL 187 melanoma cells = assay: MTT cell viability assay, SKMEL 187; format: cell-based, human; details: riluzole 25 μM or 50 μM vs no treatment or vehicle (DMSO)
# Procedure: as §6
# 1205Lu melanoma cells [7] = assay: MTT cell viability assay, 1205Lu; format: cell-based, human; details: for cell proliferation and viability (number of viable cells): single agent, seven days, FIG. 1C
# Procedure: as §6
# melanoma = details: Phase II; cited from earlier work
# excised tumor xenografts = assay: Immunohistochemistry on excised xenografts (riluzole/sorafenib study); format: in vivo, mice; details: for number of Ki-67 positive cells: Ki-67 immunohistochemistry; for number of positive Caspase 3 cells vs controls: cleaved Caspase 3 immunohistochemistry
# From the text: as §1
# Additionally, immunohistochemical analyses were performed on excised xenografts using antibodies against the cleaved form of Caspase 3 to detect apoptotic cell death, and Ki-67 to detect changes in cell proliferation.
# A2058 melanoma cells [8] = assay: MTT cell viability assay, A2058; format: cell-based, human; details: riluzole 25 μM or 50 μM vs no treatment or vehicle (DMSO)
# Procedure: as §6
# 1205Lu melanoma cells [9] = assay: Cell cycle analysis (propidium iodide flow cytometry), 1205Lu; format: cell-based, human; details: riluzole 10 μM, 24 hours post-treatment
# Procedure: as §6
# A2058 melanoma cells [10] = assay: Cell cycle analysis (propidium iodide flow cytometry), A2058; format: cell-based, human; details: riluzole 10 μM, 24 hours post-treatment
# Procedure: as §6
# [11] = system: UACC903 human melanoma xenografts; assay: UACC903 xenografts in immunodeficient nude mice; format: in vivo
# Procedure: as §3
# (§5) Briefly, UACC903 cells were injected into the dorsal flanks of nude mice. Tumors were allowed to grow to approximately 6-10 mm^3 and mice were divided into groups to obtain relatively constant tumor volumes between each group (12 mice per group).
# UACC903 melanoma cells [12] = assay: Cell cycle analysis (propidium iodide flow cytometry), UACC903; format: cell-based, human; details: riluzole 10 μM, 24 hours post-treatment
# Procedure: as §6
# ERK phosphorylation = assay: Western immunoblot, ERK phosphorylation; format: cell-based, human; details: C8161, UACC903 and 1205Lu cells; harvested xenografts showed similar results
# Procedure: as §2
# [13] = system: 1205Lu human melanoma cell line; assay: Three dimensional anchorage independent colony assay, 1205Lu; format: cell-based; details: riluzole 10 μM, sorafenib 5 μM or both; 14 days; FIG. 2
# Procedure: as §4
# [14] = system: SKMEL2 human melanoma cell line; assay: Three dimensional anchorage independent colony assay, SKMEL2; format: cell-based; details: riluzole 10 μM, sorafenib 5 μM or both; 14 days; vs control group; FIG. 2
# Procedure: as §4
# cleaved form of PARP = assay: Western analysis, cleaved PARP; format: cell-based, human; details: riluzole 10 μM; UACC903, 1205Lu, A2058 cells; 24 and 48 hours
# Procedure: as §2, §5
# Mcl-1 = assay: Western immunoblot, Mcl-1 levels; format: cell-based, human; details: C8161, UACC903 and 1205Lu cells
# [15] = system: 1205Lu human melanoma xenografts; assay: 1205Lu xenografts in immunodeficient nude mice; format: in vivo; details: riluzole 10 mg/kg, sorafenib 24 mg/kg, or riluzole 5 mg/kg + sorafenib 12 mg/kg daily oral gavage; FIG. 3C
# Procedure: as §3
# [16] = riluzole 25 μM or 50 μM vs no treatment or vehicle (DMSO)
structure (smiles),measurement,setting,value
NC1(c2ccc(-c3nc4ccn5c(=O)[nH]nc5c4cc3-c3ccccc3)cc2)CCC1 [MK2206],cell proliferation,"C8161 melanoma cells; single agent 10 μM, FIG. 5A",suppress cell proliferation
same,cell proliferation,"UACC903 melanoma cells [1]; single agent 10 μM, FIG. 5A",suppress cell proliferation
same,cell proliferation,[2],suppress cell proliferation
same,number of Ki-67 positive cells,"[3]; MK2206 30 mg/kg, or combination at half the dose of each (p<0.001)",decrease in the number of Ki-67 positive cells
same,cleaved Caspase-3-positive (apoptotic) cells,[3],significant increase in apoptotic cells
same,AKT phosphorylation,AKT phosphorylation,suppress AKT phosphorylation
same,tumor volume / xenograft growth,"[4]; MK2206 30 mg/kg, or riluzole 5 mg/kg + MK2206 15 mg/kg, oral gavage, FIG. 6, combination p<0.005 vs NT or vehicle",suppress the growth of the melanoma xenografts
Nc1nc2ccc(OC(F)(F)F)cc2s1 [riluzole],number of viable cells,C8161 melanoma cells; [16],significantly decreased the number of viable cells
same,cell proliferation and viability (number of viable cells),C8161 melanoma cells,greatest reduction in the number of viable cells
same,number of viable cells,UACC903 melanoma cells [1]; [16],significantly decreased the number of viable cells
same,cell proliferation and viability (number of viable cells),UACC903 melanoma cells [1]; FIG. 1B,not as sensitive to riluzole
same,patients showing measurable clinical responses,"advanced melanoma; Phase 0, patients with advanced melanoma given riluzole",34%
same,decrease in tumor size,"advanced melanoma; Phase 0, some tumors",over 90%
same,reduction in the number of colonies,[5],very little inhibitory activity
same,decrease in colony formation,[6],40%
same,number of viable cells,SKMEL 187 melanoma cells,significantly decreased the number of viable cells
same,number of viable cells,1205Lu melanoma cells [7]; [16],significantly decreased the number of viable cells
same,cell proliferation and viability (number of viable cells),1205Lu melanoma cells [7],not as sensitive to riluzole
same,cleaved Caspase-3-positive (apoptotic) cells,[3],significant increase in apoptotic cells
same,RECIST criteria responses,melanoma,no RECIST criteria responses
same,patients exhibiting stable disease,melanoma,42%
same,number of Ki-67 positive cells,excised tumor xenografts,reduced
same,number of positive Caspase 3 cells vs controls,excised tumor xenografts,substantial increase in the number of positive Caspase 3 cells
same,number of viable cells,A2058 melanoma cells [8],significantly decreased the number of viable cells
same,cells accumulating in the G2/M phase,1205Lu melanoma cells [9],about half
same,cells accumulating in the G2/M phase,A2058 melanoma cells [10],about half
same,tumor size vs controls,"[11]; single agent riluzole daily by oral gavage, day 18, 12 mice per group",substantial difference between the tumor sizes
same,AKT phosphorylation,AKT phosphorylation,suppress AKT phosphorylation
same,cells accumulating in the G2/M phase,UACC903 melanoma cells [12],about half
same,ERK phosphorylation,ERK phosphorylation,decrease in levels of ERK phosphorylation in a cell line-dependent manner
same,reduction in colony formation,[13],30%
same,decrease in colony formation,[14],18%
same,cleaved form of PARP,cleaved form of PARP,increase in the cleaved form of PARP
CNC(=O)c1cc(Oc2ccc(NC(=O)Nc3ccc(Cl)c(C(F)(F)F)c3)cc2)ccn1 [sorafenib],cell proliferation and viability (number of viable cells),C8161 melanoma cells,not very effective in suppressing C8161 cell growth
same,cell proliferation and viability (number of viable cells),UACC903 melanoma cells [1]; FIG. 1B,substantial decrease in the number of viable cells
same,reduction in the number of colonies,[5],45%
same,decrease in colony formation,[6],little effect
same,cell proliferation and viability (number of viable cells),1205Lu melanoma cells [7],substantial decrease in the number of viable cells
same,Mcl-1 levels,Mcl-1,reduction in Mcl-1 levels was detected in sorafenib-treated UACC903 and 1205 LU cells
same,tumor volume response compared to UACC903 xenografts,[15],more sensitive
same,number of Ki-67 positive cells,excised tumor xenografts,reduced
same,number of positive Caspase 3 cells vs controls,excised tumor xenografts,substantial increase in the number of positive Caspase 3 cells
same,tumor volume,"[11]; riluzole 10 mg/kg, sorafenib 24 mg/kg, or riluzole 5 mg/kg + sorafenib 12 mg/kg daily oral gavage, FIG. 3B, p<0.01 single agents day 18, p<0.001 combination",statistically relevant responses
same,ERK phosphorylation,ERK phosphorylation,more highly suppress ERK phosphorylation in UACC903 and 1205Lu cells than in C8161 cells
same,reduction in colony formation,[13],30%
same,decrease in colony formation,[14],more efficacious at decreasing colony formation
same,tumor volume,"[4]; sorafenib 24 mg/kg, or riluzole 5 mg/kg + sorafenib 12 mg/kg daily oral gavage, FIG. 3A, p<0.001 for riluzole and combination vs NT or Veh",did not yield a significant decrease in tumor size
CCCS(=O)(=O)Nc1ccc(F)c(C(=O)c2c[nH]c3ncc(Cl)cc23)c1F [PLX4720],inhibition in cell proliferation,C8161 melanoma cells; PLX4720 10 uM,only slight inhibition in cell proliferation
same,IC50,"UACC903 melanoma cells [1]; Homo sapiens, UACC-903, UACC903 cells, MTT, FIG. 1B",0.1 µM
same,Mcl-1 levels,Mcl-1,does not down regulate the levels of Mcl-1
same,tumor progression,"[11]; riluzole 10 mg/kg, PLX4720 20 mg/kg, or riluzole 5 mg/kg + PLX4720 10 mg/kg, FIG. 3D",not as potent as riluzole
same,ERK phosphorylation,ERK phosphorylation,only found to suppress ERK activity in the B-RAF^V600E cell line UACC903

# Source: patent US20130116274A1 (RUTGERS, THE STATE UNIVERSITY OF NEW JERSEY, priority 2011, published 2013)
